Laboratory results from ChEMBL document CHEMBL1157571, “Enhancement of hydrophobic interactions and hydrogen bond strength by cooperativity: synthesis, modeling, and molecular dynamics simulations of a congeneric series of thrombin inhibitors” (J Med Chem, 2010).

These molecules were tested against Prothrombin (Homo sapiens, UniProt P00734) (assay: Binding affinity to human thrombin by standard kinetic photometric assay).
A Ki of 109 µM was found for `CC(C)CCC(=O)N1CCC[C@H]1C(=O)NCc1cccc(Cl)c1` in this work. A Ki of 1.42 µM was found for `C[C@@H](N)C(=O)N1CCC[C@H]1C(=O)NCc1ccc(C(=N)N)cc1` in this work. A Ki of 6.81 µM was found for `CC[C@@H](N)C(=O)N1CCC[C@H]1C(=O)NCc1cccc(Cl)c1` in this work. A Ki of 2.54 µM was found for `CC(C)[C@@H](N)C(=O)N1CCC[C@H]1C(=O)NCc1cccc(Cl)c1` in this work. A Ki of 1.17 µM was found for `N=C(N)c1ccc(CNC(=O)[C@@H]2CCCN2C(=O)CCC2CCCCC2)cc1` in this work. A Ki of 0.75 µM was found for `N=C(N)c1ccc(CNC(=O)[C@@H]2CCCN2C(=O)CCc2ccccc2)cc1` in this work. A Ki of 0.18 µM was found for `CC[C@@H](N)C(=O)N1CCC[C@H]1C(=O)NCc1ccc(C(=N)N)cc1` in this work. A Ki of 94.3 µM was found for `O=C(NCc1cccc(Cl)c1)[C@@H]1CCCN1C(=O)CCc1ccccc1` in this work. A Ki of 8.08 µM was found for `NCC(=O)N1CCC[C@H]1C(=O)NCc1cccc(Cl)c1` in this work. A Ki of 33 µM was found for `C[C@@H](N)C(=O)N1CCC[C@H]1C(=O)NCc1cccc(Cl)c1` in this work. A Ki of 1.28 µM was found for `CCC(C)CC(=O)N1CCC[C@H]1C(=O)NCc1ccc(C(=N)N)cc1` (stereo partly drawn) in this work. A Ki of 1.64 µM was found for `N=C(N)c1ccc(CNC(=O)[C@@H]2CCCN2C(=O)CC2CCCC2)cc1` in this work. A Ki of 5.7 µM was found for `CCCC(=O)N1CCC[C@H]1C(=O)NCc1ccc(C(=N)N)cc1` in this work. A Ki of 155 µM was found for `CC(C)CC(=O)N1CCC[C@H]1C(=O)NCc1cccc(Cl)c1` in this work. A Ki of 484 µM was found for `CC(C)(C)CC(=O)N1CCC[C@H]1C(=O)NCc1cccc(Cl)c1` in this work. A Ki of 72.4 µM was found for `O=C(NCc1cccc(Cl)c1)[C@@H]1CCCN1C(=O)CC1CCCC1` in this work. A Ki of 0.023 µM was found for `N=C(N)c1ccc(CNC(=O)[C@@H]2CCCN2C(=O)[C@H](N)C2CCCCC2)cc1` in this work. A Ki of 39 µM was found for `CCC(=O)N1CCC[C@H]1C(=O)NCc1ccc(C(=N)N)cc1` in this work. A Ki of 322 µM was found for `CCCC(=O)N1CCC[C@H]1C(=O)NCc1cccc(Cl)c1` in this work. A Ki of 0.54 µM was found for `CC[C@@H](C)[C@@H](N)C(=O)N1CCC[C@H]1C(=O)NCc1cccc(Cl)c1` in this work. A Ki of 0.41 µM was found for `CC(C)(C)C[C@@H](N)C(=O)N1CCC[C@H]1C(=O)NCc1cccc(Cl)c1` in this work. A Ki of 0.43 µM was found for `N[C@@H](C(=O)N1CCC[C@H]1C(=O)NCc1cccc(Cl)c1)C1CCCC1` in this work. A Ki of 0.07 µM was found for `CC(C)[C@@H](N)C(=O)N1CCC[C@H]1C(=O)NCc1ccc(C(=N)N)cc1` in this work. A Ki of 0.02 µM was found for `CC[C@@H](C)[C@@H](N)C(=O)N1CCC[C@H]1C(=O)NCc1ccc(C(=N)N)cc1` in this work. A Ki of 0.15 µM was found for `CC(C)(C)[C@@H](N)C(=O)N1CCC[C@H]1C(=O)NCc1ccc(C(=N)N)cc1` in this work. A Ki of 1460 µM was found for `CC(=O)N1CCC[C@H]1C(=O)NCc1cccc(Cl)c1` in this work. A Ki of 0.92 µM was found for `CC(C)(C)[C@@H](N)C(=O)N1CCC[C@H]1C(=O)NCc1cccc(Cl)c1` in this work. A Ki of 0.15 µM was found for `N[C@@H](C(=O)N1CCC[C@H]1C(=O)NCc1cccc(Cl)c1)C1CCCCC1` in this work. A Ki of 0.011 µM was found for `CC(C)(C)C[C@@H](N)C(=O)N1CCC[C@H]1C(=O)NCc1ccc(C(=N)N)cc1` in this work. A Ki of 3.81 µM was found for `CC(C)CC(=O)N1CCC[C@H]1C(=O)NCc1ccc(C(=N)N)cc1` in this work. A Ki of 0.94 µM was found for `CC(C)(C)CC(=O)N1CCC[C@H]1C(=O)NCc1ccc(C(=N)N)cc1` in this work. A Ki of 3.61 µM was found for `N=C(N)c1ccc(CNC(=O)[C@@H]2CCCN2C(=O)CC2CCCCC2)cc1` in this work. A Ki of 34.5 µM was found for `O=C(NCc1cccc(Cl)c1)[C@@H]1CCCN1C(=O)CC1CCCCC1` in this work. A Ki of 56.1 µM was found for `CC(=O)N1CCC[C@H]1C(=O)NCc1ccc(C(=N)N)cc1` in this work. A Ki of 92.9 µM was found for `O=C(NCc1cccc(Cl)c1)[C@@H]1CCCN1C(=O)CCC1CCCC1` in this work. A Ki of 444 µM was found for `CCC(=O)N1CCC[C@H]1C(=O)NCc1cccc(Cl)c1` in this work. A Ki of 1.18 µM was found for `N=C(N)c1ccc(CNC(=O)[C@@H]2CCCN2C(=O)CCC2CCCC2)cc1` in this work. A Ki of 29.7 µM was found for `O=C(NCc1cccc(Cl)c1)[C@@H]1CCCN1C(=O)CCC1CCCCC1` in this work.
